Experimental data: paper PMC10960833, “1,2,3-triazole and chiral Schiff base hybrids as potential anticancer agents: DFT, molecular docking and ADME studies” (Scientific Reports, 2024)

Legend:
[1] = test system: PC3 (prostate) cancer cell lines; test: AlamarBlue cytotoxicity assay, PC3; type: cell-based; conditions: for IC50: Homo sapiens, PC-3; for Selectivity index (SI) PC3: ratio IC50 MRC5 / IC50 PC3
Procedure: (§1) PC3, A375, and MRC5 cell lines were purchased from ATCC and were cultured in Dulbecco’s Modified Eagle Media (DMEM) supplemented with 10% Fetal Bovine Serum (FBS) (Highveld biological), 1% gentamycin and 1% penicillin/streptomycin (Sigma, USA).
(§2) The growth inhibitory effect and cytotoxicity of the compounds were tested in triplicate against two cancer cell lines (PC3 and A375) and one healthy cell line (MRC5), respectively using Alamar Blue assay.
(§3) PC3, A375, and MRC5 cell lines were cultured in 96 well tissue culture plates. […] Cells were treated for 24 h. […] Cell viability was measured using AlamarBlue and readings were obtained in terms of fluorescent values using a microplate reader (BioTek Synergy HT). Samples were exposed to an excitation wavelength of 530 nm and at the emission wavelength of 590 nm. Cell viability percentage was calculated using the formula below: Cellviability=absorbanceoftreatedcells-absorbanceofblank/absorbanceofuntreatedcells-absorbanceofblank×100%

[2] = AlamarBlue cytotoxicity assay, MRC5 normal cells; type: cell-based; conditions: human, MRC5 healthy lung cells, 24 h treatment, mean ± SD of three independent experiments
Procedure: as §1, with “USA). Cells were maintained at 37 °C under 5% of carbon dioxide (CO2) and 95% relative humidity.” for “USA).”
as §2
(§4) PC3, A375, and MRC5 cell lines were cultured in 96 well tissue culture plates. […] Cells were treated for 24 h. 10 µl of AlamarBlue (Thermo Fisher Scientific) was added to each well at 22 h after treatment and incubated for 2 h at 37 °C in the dark since AlamarBlue is light sensitive. Cell viability was measured using AlamarBlue and readings were obtained in terms of fluorescent values using a microplate reader (BioTek Synergy HT). Samples were exposed to an excitation wavelength of 530 nm and at the emission wavelength of 590 nm. Cell viability percentage was calculated using the formula below: Cellviability=absorbanceoftreatedcells-absorbanceofblank/absorbanceofuntreatedcells-absorbanceofblank×100%

[3] = test system: A375 (skin) cancer cell lines; test: AlamarBlue cytotoxicity assay, A375; type: cell-based; conditions: for Cytotoxicity (IC50) A375 / IC50: A375 cells, 24 h treatment, AlamarBlue, mean ± SD of three independent experiments; for IC50 / viability at 5 µg/mL / viability at 15 µg/mL / viability at 25 µg/mL / viability at 50 µg/mL / viability at 75 µg/mL / viability at 100 µg/mL: Homo sapiens; for IC50: A-375, 24 h; for viability at 5 µg/mL / viability at 15 µg/mL / viability at 25 µg/mL / viability at 50 µg/mL / viability at 75 µg/mL / viability at 100 µg/mL: A-375; for Selectivity index (SI) A375: ratio IC50 MRC5 / IC50 A375
Procedure: as §1, §2, §3

[4] = test system: MRC5 (healthy lung) cell lines; test: AlamarBlue cytotoxicity assay, MRC5 normal cells; type: cell-based; conditions: 24 h treatment, mean ± SD of three independent experiments
Procedure: as §1, with “USA). Cells were maintained at 37 °C under 5% of carbon dioxide (CO2) and 95% relative humidity.” for “USA).”
as §2, §4

[5] = PC3 cells, 24 h treatment, AlamarBlue, mean ± SD of three independent experiments

Compound | IC50 [1, 5] [µg/mL] | Activity for the proliferation of the PC3 cancer cell lines (in words) [1] | viability at 5 µg/mL ([1]; PC3, 5 µg/mL) [%] | viability at 15 µg/mL ([1]; PC3, 15 µg/mL) [%] | viability at 25 µg/mL ([1]; PC3, 25 µg/mL) [%] | viability at 50 µg/mL ([1]; PC3, 50 µg/mL) [%] | viability at 75 µg/mL ([1]; PC3, 75 µg/mL) [%] | viability at 100 µg/mL ([1]; PC3, 100 µg/mL) [%] | Selectivity index (SI) PC3 [1] | melting point [°C] | IC50 at 24 h [2] [µg/mL] | Cytotoxicity (IC50) A375 [3] [µg/mL] | IC50 [3] [µg/mL] | viability at 5 µg/mL ([3]; A375, 5 µg/mL) [%] | viability at 15 µg/mL ([3]; A375, 15 µg/mL) [%] | viability at 25 µg/mL ([3]; A375, 25 µg/mL) [%] | viability at 50 µg/mL ([3]; A375, 50 µg/mL) [%] | viability at 75 µg/mL ([3]; A375, 75 µg/mL) [%] | viability at 100 µg/mL ([3]; A375, 100 µg/mL) [%] | Selectivity index (SI) A375 [3] | also measured
O=C(O)CCC(/N=C/c1ccccc1OCc1cn(-c2ccccc2)nn1)C(=O)O (stereo in doubt) [Compound 2, (s,e)-2-((2-((1-phenyl-1H-1,2,3-triazol-yl)methoxy)benzylidene)amino)pentanedioic acid] | 60.6 ± 1.42 | moderate activity | 90.3 | 81 | 71 | 56 | 36 | 28 | 1.41 | 146 to 148 | 85.3 ± 2.27 | 36.12 ± 0.87 | 36.1 to 40.4 | 75.7 | 67 | 53.3 | 34 | 20.7 | 14 | 2.36 | –
O=Cc1ccccc1OCc1cn(-c2ccccc2)nn1 [Compound 1, 2-((1-phenyl-1H-1,2,3-triazol-4-yl)methoxy)benzaldehyde] | 75 ± 1.82 | – | 95 | 89 | 80 | 63 | 47 | 38 | 1.02 | 147 to 149 | 76.9 ± 1.87 | 40.37 ± 1.03 | 36.1 to 40.4 | 79 | 69 | 55 | 37 | 24 | 18 | 1.90 | –
O=C([O-])[C@H](Cc1c[nH]c2ccccc12)/N=C/c1ccccc1OCc1cn(-c2ccccc2)nn1.[Na+] [Compound 3, sodium (s,e)-3-(1H-indol-3-yl)-2-((2-((1-phenyl-1H-1,2,3-triazol-4-yl)methoxy)benzylidene)amino)propanoate] | 40.5 ± 1.06 | – | 77 | 65.3 | 58 | 44 | 22 | 16 | 2.13 | 196 to 198 | 86.4 ± 2.64 | – | 21.9 ± 0.52 | 68 | 57.7 | 42 | 23 | 14 | 9 | 3.95 | –
O=C([O-])[C@H](Cc1ccc([O-])cc1)/N=C/c1ccccc1OCc1cn(-c2ccccc2)nn1.[Na+].[Na+] [Compound 4, sodium (s,e)-3-(4-oxidophenyl)-2-((2-((1-phenyl-1H-1,2,3-triazol-4-yl)methoxy)benzylidene)amino)propanoate] | 55.7 ± 1.28 | moderate activity | 84 | 78 | 70 | 56 | 34 | 21.3 | 1.59 | 148 to 150 | 88.4 ± 2.38 | – | 24.8 ± 0.61 | 68.7 | 59.7 | 45 | 25 | 16 | 11 | 3.56 | –
O=C(O)C(Cc1ccccc1)/N=C/c1ccccc1OCc1cn(-c2ccccc2)nn1 (stereo not drawn) [Compound 6, (e)-3-phenyl-2-((2-((1-phenyl-1H-1,2,3-triazol-4-yl)methoxy)benzylidene)amino)propanoic acid] | – | – | – | – | – | – | – | – | 2.07 | – | – | 24.18 ± 0.57 | – | – | – | – | – | – | – | 3.85 | Cell viability (%) ([1]; PC3, 5 µg/mL): 79%; Cell viability (%) ([1]; PC3, 15 µg/mL): 68%; Cell viability (%) ([1]; PC3, 25 µg/mL): 60%; Cell viability (%) ([1]; PC3, 50 µg/mL): 49%; Cell viability (%) ([1]; PC3, 75 µg/mL): 26%; Cell viability (%) ([1]; PC3, 100 µg/mL): 18%; Cytotoxicity (IC50) PC3 [1, 5]: 45.00 ± 1.12 µg/mL; Cytotoxicity (IC50) MRC5 [4]: 93.07 ± 2.42 µg/mL; Cell viability (%) ([3]; A375, 5 µg/mL): 68%; Cell viability (%) ([3]; A375, 15 µg/mL): 57.67%; Cell viability (%) ([3]; A375, 25 µg/mL): 45%; Cell viability (%) ([3]; A375, 50 µg/mL): 27%; Cell viability (%) ([3]; A375, 75 µg/mL): 16%; Cell viability (%) ([3]; A375, 100 µg/mL): 8%
